Results as given in patent US20100160326A1, “PEST CONTROL AGENT CONTAINING NOVEL PYRIDYL-METHANAMINE DERIVATIVE OR SALT THEREOF” (ISHIHARA SANGYO KAISHA, LTD., priority 2006, published 2010).
Read-outs that look alike come from different tables or passages of the source.

Assays:
Assay type in all cases: in vivo
[1] = system: Green Peach Aphid (Myzus persicae); test: Test on controlling effects against green peach aphid (leaf dip); settings: foliar, 120 h
Text: Test on Controlling Effects Against Green Peach Aphid (Myzus persicae)
Mortality (%)=(1−(number of survived insects/number of treated insects))×100

[2] = system: Common Cutworm (Spodoptera litura); test: Test on controlling effects against common cutworm (cabbage leaf disk dip); settings: foliar
Text: Test on Controlling Effects Against Common Cutworm (Spodoptera litura)
Mortality (%)=(Number of dead larvae/number of released larvae)×100

[3] = system: Two-Spotted Spider Mite (Tetranychus urticae); test: Test on adults of two-spotted spider mite (kidney bean leaf dip); settings: foliar, adults dipped together with kidney bean leaf, second or third day after the treatment, 25° C.
Text: Test on Adults of Two-Spotted Spider Mite (Tetranychus urticae)
Mortality of adults (%)=(Number of dead two-spotted spider mites/Number of treated two-spotted spider mites)×100

[4] = 800 ppm, Japanese radish leaf dipped about 10 seconds, first instar nymphs, counted 5 days after the treatment, 25° C., read-out: mortality
[5] = 800 ppm, cabbage leaf disk dipped about 10 seconds, second-third instar larvae, fifth day after the release, 25° C., read-out: mortality

SMILES	mortality at 800 ppm [1, 4] [%]	mortality at 800 ppm [2, 5] [%]	mortality at 800 ppm [3] [%]	mortality at 800 ppm ([1]; in Raphanus sativus) [%]	mortality at 800 ppm [2] [%]
FC(F)(F)c1cc(NCc2ccccn2)nc(Cl)c1Cl [Compound No. 118, N-(2-PYRIDYLMETHYL)-5,6-DICHLORO-4-(TRIFLUOROMETHYL)-2-PYRIDYLAMINE]	≥ 90	≥ 90	≥ 90	–	–
FC(F)(F)c1cc(N(Cc2ccccn2)Cc2ccccn2)nc(C(F)(F)F)c1Cl [Compound No. 103, N,N-BIS(2-PYRIDYLMETHYL)-5-CHLORO-4,6-BIS(TRIFLUOROMETHYL)-2-PYRIDYLAMINE]	≥ 90	≥ 90	≥ 90	–	–
CC(c1cccnc1)N(Cc1ccccn1)c1cc(C(F)(F)F)c(Cl)c(Cl)n1 (stereo not drawn) [Compound No. 97, N-(1-(3-PYRIDYL)ETHYL)-N-(2-PYRIDYLMETHYL)-5,6-DICHLORO-4-TRIFLUOROMETHYL-2-PYRIDYLAMINE]	≥ 90	≥ 90	≥ 90	–	–
N#Cc1c(C(F)(F)F)cc(N(Cc2ccccn2)Cc2ccccn2)nc1Cl [Compound No. 24, N,N-bis(2-pyridylmethyl)-6-chloro-5-cyano-4-(trifluoromethyl)-2-pyridylamine]	–	–	–	≥ 90	≥ 90
FC(F)(F)c1cc(N(Cc2ccccn2)Cc2ccccn2)nc(Br)c1Cl [Compound No. 92, N,N-BIS(2-PYRIDYLMETHYL)-6-BROMO-5-CHLORO-4-(TRIFLUOROMETHYL)-2-PYRIDYLAMINE]	≥ 90	≥ 90	≥ 90	–	–
FC(F)(F)c1cc(Br)nc(N(Cc2ccccn2)Cc2ccccn2)c1 [Compound No. 90, N,N-BIS(2-PYRIDYLMETHYL)-6-BROMO-4-(TRIFLUOROMETHYL)-2-PYRIDYLAMINE]	≥ 90	–	≥ 90	–	–
FC(F)(F)c1cc(Cl)nc(NCc2ccccn2)c1 [Compound No. 128, N-(2-PYRIDYLMETHYL)-6-CHLORO-4-(TRIFLUOROMETHYL)-2-PYRIDYLAMINE]	≥ 90	–	–	–	–
C#Cc1nc(N(Cc2ccccn2)Cc2ccccn2)cc(C(F)(F)F)c1Cl [Compound No. 94, N,N-BIS(2-PYRIDYLMETHYL)-5-CHLORO-6-ETHYNYL-4-(TRIFLUOROMETHYL)-2-PYRIDYLAMINE]	≥ 90	–	≥ 90	–	–
O=[N+]([O-])c1cnc(N(Cc2ccccn2)Cc2ccccn2)cc1C(F)(F)F [Compound No. 9, N,N-BIS(2-PYRIDYLMETHYL)-5-NITRO-4-(TRIFLUOROMETHYL)-2-PYRIDYLAMINE]	–	–	–	≥ 90	≥ 90
C=CCN(Cc1ccccn1)c1cc(C(F)(F)F)c(Cl)c(Cl)n1 [Compound No. 55, N-ALLYL-N-(2-PYRIDYLMETHYL)-5,6-DICHLORO-4-(TRIFLUOROMETHYL)-2-PYRIDYLAMINE]	≥ 90	≥ 90	≥ 90	–	–
